Several values for one entry are separate records, joined by “and”; a condition that tells them apart may be missing. Equal entries are not always repeated. Entries after “also recorded” stand apart in the source; their conditions may differ. Structures can show the parent of a compound that is named as a salt.

This is an account of results in PMC6696315, “Inhibiting Acetylcholinesterase to Activate Pleiotropic Prodrugs with Therapeutic Interest in Alzheimer’s Disease” (Molecules, 2019).

For series [1], the target named is T1, AChE (Homo sapiens, UniProt P22303). Briefly: AChE inhibition, Ellman assay. To be noted: for inhibition at 1 µM: read-out: (h)AChE % Inhibition at 10^−6 M; for AChE inhibitory activity: result in words. Also noted: AChE from human erythrocytes; purchased Sigma Aldrich; host or cells: human erythrocytes (natural source). Format: biochemical. The method, then: All the synthesized phenolic derivatives and their carbamates were evaluated as potential inhibitors of human AChE, using the Ellman assay, as well as potential ligands for human 5-HT4R using a radioligand displacement assay.
T1 sequence (P22303 32-617 isoform P22303-2 limits assumed): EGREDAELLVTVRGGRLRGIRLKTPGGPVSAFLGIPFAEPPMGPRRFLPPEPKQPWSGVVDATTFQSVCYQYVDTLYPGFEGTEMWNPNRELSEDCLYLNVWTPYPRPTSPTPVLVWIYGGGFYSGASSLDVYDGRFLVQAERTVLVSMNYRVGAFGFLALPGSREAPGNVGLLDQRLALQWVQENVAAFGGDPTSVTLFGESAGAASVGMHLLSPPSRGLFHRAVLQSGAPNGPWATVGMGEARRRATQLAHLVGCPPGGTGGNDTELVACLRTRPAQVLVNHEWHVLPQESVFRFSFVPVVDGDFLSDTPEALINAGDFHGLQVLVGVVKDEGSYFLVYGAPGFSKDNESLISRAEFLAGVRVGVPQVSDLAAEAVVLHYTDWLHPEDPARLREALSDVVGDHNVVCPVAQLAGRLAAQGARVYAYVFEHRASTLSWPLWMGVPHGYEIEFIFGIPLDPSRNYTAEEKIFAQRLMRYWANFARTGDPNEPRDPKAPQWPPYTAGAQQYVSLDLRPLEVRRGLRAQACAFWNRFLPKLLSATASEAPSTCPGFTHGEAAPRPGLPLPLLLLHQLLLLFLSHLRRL
The inhibitory capacity of compounds on AChE biological activity was evaluated through the use of the spectrometric method of Ellman. Acetylthiocholine iodide and 5,5-dithiobis-(2-nitrobenzoic) acid (DTNB) were purchased from Sigma Aldrich. AChE from human erythrocytes (buffered aqueous solution, ≥500 units/mg protein (BCA), Sigma Aldrich, St. Louis, MO, USA) was diluted in 20 mM HEPES buffer pH 8, 0.1% Triton X-100 such as to have enzyme solution with 0.25 unit/mL enzyme activity. In the procedure, 100 μL of 0.3 mM DTNB dissolved in a phosphate buffer with pH 7.4 were added into the 96-well plates followed by 50 μL of the test compound solution and 50 μL of enzyme (0.05 U final). After 5 min of preincubation at 25 °C, the reaction was then initiated by the injection of 50 μL of 10 mM acetylthiocholine iodide solution. […] Assays were performed with a blank containing all components except acetylthiocholine, in order to account for non-enzymatic reactions. The reaction slopes were compared and the percent inhibition due to the presence of test compounds was calculated by the following expression: 100 − (vi/v0 × 100), where vi is the rate calculated in the presence of inhibitor and v0 is the enzyme activity.

For series [2], the target named is T2, human 5-HT4R (Homo sapiens, UniProt Q13639).
T2 construct: purchased Eurofins HTS110M
T2 sequence (Q13639 whole entry): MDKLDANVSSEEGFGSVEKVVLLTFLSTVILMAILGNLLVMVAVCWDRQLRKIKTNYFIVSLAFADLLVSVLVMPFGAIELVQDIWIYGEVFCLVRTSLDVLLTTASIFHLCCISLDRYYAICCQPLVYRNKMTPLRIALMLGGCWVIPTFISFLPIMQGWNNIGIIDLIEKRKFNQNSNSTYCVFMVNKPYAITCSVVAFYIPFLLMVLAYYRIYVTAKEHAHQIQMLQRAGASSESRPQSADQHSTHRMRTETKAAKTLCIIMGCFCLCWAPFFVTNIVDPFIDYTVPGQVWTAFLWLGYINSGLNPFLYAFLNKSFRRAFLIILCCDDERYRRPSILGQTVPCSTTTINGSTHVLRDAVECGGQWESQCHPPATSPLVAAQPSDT
Briefly: 5-HT4R radioligand displacement assay ([3H]-GR113808). In kind it is binding. To be noted: for 5-HT4R affinity: result in words. The method, then:
All the synthesized phenolic derivatives and their carbamates were evaluated as potential inhibitors of human AChE, using the Ellman assay, as well as potential ligands for human 5-HT4R using a radioligand displacement assay. […].
For competition studies, 2.5 µg of proteins (5-HT4(b) membrane preparations, HTS110M, Eurofins. Eurofins’ 5-HT4(b) membrane preparations are crude membrane preparations made from their proprietary stable recombinant cell lines to ensure high-level of GPCR surface expression.) were incubated in duplicate at 25 °C for 60 min in the absence or the presence of 10^−6 or 10^−8M of each drug (9 was used as a reference standard) and 0.2 nM [^3H]-GR113808 (NET 1152, Perkin Elmer) in 25 mM Tris buffer (pH 7.4, 25 °C). At the end of the incubation, homogenates were filtered through Whatman GF/C filters (Alpha Biotech) pre-soaked with 0.5% polyethylenimine using a Brandel cell harvester. Filters were subsequently washed three times with 1 mL of ice-cold 25 mM Tris buffer (pH 7.4, 4 °C). Non-specific binding was evaluated in parallel in the presence of 30 µM serotonin. For some of these compounds, affinity constants were calculated from five-point inhibition curves using the GraphPad Prism 6 software and expressed as Ki ± SD.
A general note: Displacement assays read how much labelled ligand stays bound in the presence of the test substance.

In series [3] the target is T2, human 5-HT4R. The series is described as above. In kind it is binding. To be noted: mean ± SEM of at least three experiments.
For series [4], the system named is mice. In words: CNS-activity and acute toxicity test. To be noted: mice, IP. The method, then:
Animals. Adult male NMRI mice (3 months old, weighing 35–40 g) from Janvier labs (Le Genest-Saint-Isle, France) were used to perform experiments. Mice were housed by ten in standard polycarbonate cages in standard controlled conditions (22 ± 2 °C, 55 ± 10% humidity) with a reversed 12 h light/dark cycle (light on at 7 pm). Food and water were available ad libitum in the home cage. All experiments were conducted (between 9 am and 3 pm) during the active–dark phase of the cycle and were in agreement with the European Directives and French law on animal experimentation (personal authorization n° 14–17 for MB and 14–60 for TF).
CNS-activity and acute toxicity test. Behavioral and neurological changes induced by graded doses (1, 10, 100 mg/kg) of the tested derivatives were evaluated in mice, in groups of four, by a standardized observation technique at different times (30 min, 3 and 24 h) after intraperitoneal administration. […] The approximate DL50 of the compounds were also calculated through the quantification of mortality after 24 h. Amphetamine (2 mg/kg) and chlorpromazine (10 mg/kg) were used as the stimulant and depressive references, respectively.

In series [5] the target is T1, AChE. In words: Kinetic study for AChE inhibition (Lineweaver-Burk plots). Format: biochemical. The method, then: To try to clarify the mechanism of action of 19 and 20, reciprocal plots of 1/velocity vs. 1/[substrate] were constructed at different concentrations of the substrate acetylthiocholine iodide (0.01–1 mM) by using the spectrometric method by Ellman et al.. Four concentrations of 19 were selected for the studies: 10^−6, 10^−7, 10^−8 and 10^−9 M for the kinetic analysis of AChE inhibition. Four concentrations of 20 were selected for the studies: 10^−5, 10^−6, 10^−7 and 10^−8 M for the kinetic analysis of AChE inhibition. The plots were assessed by a weighted least squares analysis that assumed the variance of velocity (ν) to be a constant percentage of ν for the entire dataset. Slopes of these reciprocal plots were then plotted against the concentration of 19 and 20 in a weighted analysis.

Series [6] concerns the target T3, (h)5-HT4(a) receptors (Homo sapiens, UniProt Q13639).
T3 construct: HA; expressed in transfected cells; host or cells: COS-7
In words: cAMP production in COS-7 cells transfected with 5-HT4R. Format: cell-based. As to the method: COS-7 cells were grown in Dulbecco’s modified Eagle medium (DMEM) supplemented with 10% dialyzed fetal calf serum (dFCS) and antibiotics. Cells were transiently transfected by electroporation with plasmids encoding HA-tagged 5-HT4R (100 ng/10^6 cells), then seeded in 96-well plates (16,000 cells/well). […] After 10 min, cells were then lysed by the addition of the same volume of Triton-X100 (0.1%). Quantification of cAMP production was performed by HTRF® using the cAMP Dynamic kit (Cisbio Bioassays, Codolet, France) according to the manufacturer’s instructions.

The subject of series [7] is rodents. To be noted: various tests; cited from earlier work.
Series [8] has as its system rodents. To be noted: cited from earlier work.
The mark [9] stands for this setting: (h)AChE IC50, Ellman assay, mean ± SEM of at least two experiments.

T3 sequence (Q13639 1-387 isoform Q13639-2): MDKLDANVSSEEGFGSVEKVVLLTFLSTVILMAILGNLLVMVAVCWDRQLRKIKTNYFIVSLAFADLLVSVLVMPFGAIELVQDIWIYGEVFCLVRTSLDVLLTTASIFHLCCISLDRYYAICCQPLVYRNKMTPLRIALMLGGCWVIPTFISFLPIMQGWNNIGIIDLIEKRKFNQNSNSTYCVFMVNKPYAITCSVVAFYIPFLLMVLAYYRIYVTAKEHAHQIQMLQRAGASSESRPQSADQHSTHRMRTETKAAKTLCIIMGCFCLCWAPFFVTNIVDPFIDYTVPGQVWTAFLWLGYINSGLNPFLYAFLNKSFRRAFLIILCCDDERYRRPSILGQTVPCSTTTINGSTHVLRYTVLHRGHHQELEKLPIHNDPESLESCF

On to `CCN(C)C(=O)Oc1cccc(CN2CCC(COC(=O)c3cc(Cl)c(N)cc3OC)CC2)c1` [Compound 8, [1-[[3-[Ethyl(methyl)carbamoyl]oxyphenyl]methyl]-4-piperidyl]methyl 4-amino-5-chloro-2-methoxybenzoate], for which the IC50 (usually the concentration needed to halve the response being measured) in series [1] (setting [9]) worked out at 16300 nM. In addition, the inhibition – broadly, the percentage by which the read-out fell short of the control – at 0.01 µM in series [2] (10^−8 M) came out at 23%. In series [2], the 5-HT4R affinity result is reported as “devoid of any activity towards 5-HT4R”.
Take `COc1cc(N)c(Cl)cc1C(=O)CCC1CCN(Cc2cccc(O)c2)CC1` [Compound 4, 1-(4-Amino-5-chloro-2-methoxyphenyl)-3-[1-[(3-hydroxyphenyl)methyl]-4-piperidyl]propan-1-one]: the IC50 in series [1] (setting [9]) was 148 nM and 149 nM. Also, the Ki – broadly, a dissociation constant, usually derived from enzyme kinetics or from competition with a known ligand – in series [3] worked out at 5.1 ± 1.1 nM.
With `C[C@H](N)Cc1ccccc1` [Amphetamine, (+)-α-Methylphenethylamine hemisulfate, reference compound], the “Symptoms (Subtoxic Doses)” value in series [4] (2 mg/kg, stimulant reference) is “Hyperactivity, exophtalmy, irritability”.
In the case of `CN(C)CCCN1c2ccccc2Sc2ccc(Cl)cc21` [Chlorpromazine, chlorpromazine hydrochloride, reference compound], the “Symptoms (Subtoxic Doses)” value in series [4] (10 mg/kg, depressive reference) is “Hypoactivity, ataxia, sleep”.
Take `CCN(C)C(=O)Oc1cccc(CN2CCC(CNC(=O)c3cc(Cl)c(N)cc3OC)CC2)c1` [Compound 9, [3-[[4-[[(4-Amino-5-chloro-2-methoxybenzoyl)amino]methyl]-1-piperidyl]methyl]phenyl] N-ethyl-N-methyl-carbamate]: in series [1] (setting [9]), the IC50 is 10100 nM. This compound also returned an inhibition at 0.01 µM in series [2] (10^−8 M) of 13%. The 5-HT4R affinity entry in series [2] is given as “devoid of any activity towards 5-HT4R”.
With `COc1cc(N)c(Cl)cc1C(=O)CCC1CCN(Cc2cccc(O)c2)CC1.O=C(O)/C=C/C(=O)O` [Compound 19, 1-(4-Amino-5-chloro-2-methoxyphenyl)-3-[1-[(3-hydroxyphenyl)methyl]-4-piperidyl]propan-1-one fumaric acid salt], the “mechanism of AChE inhibition” value in series [5] is reported as “non-competitive AChE inhibitor; also recorded: non-competitive-type”. Also, in series [1] (setting [9]), the IC50 was 72 ± 1.4 nM. In addition, the “% Control Agonist Response” value in series [6] (5-HT as control 5-HT4R agonist, mean ± SEM) is reported as 59.0 ± 3.9%. The Profile entry in series [6] ((h)5-HT4(a) pharmacological profile) is recorded as “partial 5-HT4R agonist”. In series [6] (given as Log(EC50), negative values, mean ± SEM), the EC50 (as a rule, the concentration at which the effect is half-maximal) is 0.126 nM. This compound also came in with a Ki in series [3] of 6.9 ± 1.2 nM.
With `COc1cc(N)c(Cl)cc1C(=O)NCC1CCN(Cc2cccc(O)c2)CC1` [Compound 6, 4-Amino-5-chloro-N-[[1-[(3-hydroxyphenyl)methyl]-4-piperidyl]methyl]-2-methoxybenzamide], in series [1], the inhibition at 1 µM worked out at 4% and the AChE inhibitory activity entry was “devoid of any AChE inhibitory activities; also recorded: absent”. The Ki in series [3] turned out to be 5.8 ± 1.2 nM.
The like results for `COc1cc(N)c(Cl)cc1C(=O)OCC1CCN(Cc2cccc(O)c2)CC1` [Compound 5, [1-[(3-Hydroxyphenyl)methyl]-4-piperidyl]methyl 4-amino-5-chloro-2-methoxybenzoate] were, in that order, 11%, “devoid of any AChE inhibitory activities; also recorded: absent” and 0.6 ± 0.4 nM.
Regarding `CCN(C)C(=O)Oc1cccc([C@H](C)N(C)C)c1` [Rivastigmine], the “effect on scopolamine-induced memory performance deficit” value in series [7] was “counterbalance scopolamine-induced memory performance deficit”. Besides, the “effect on memory deficits induced by MK 801” value in series [8] is “ineffective in improving memory deficits induced by MK 801”.
`CCN(C)C(=O)Oc1cccc(CN2CCC(CCC(=O)c3cc(Cl)c(N)cc3OC)CC2)c1` [Compound 7, [3-[[4-[3-(4-Amino-5-chloro-2-methoxyphenyl)-3-oxopropyl]-1-piperidyl]methyl]phenyl] N-ethyl-N-methyl-carbamate]: the IC50 was 4150 ± 794 nM in series [1] (setting [9]) and 4150 nM in series [1] (AChE IC50, value in text). The “(h)5-HT4R % Inhibition at 10^−8 M” value in series [2] (10^−8 M) is reported as 3%. Besides, the 5-HT4R affinity result in series [2] is reported as “devoid of any activity towards 5-HT4R”.
